From patent publication US8580815B2, “Derivatives of azaindoles as inhibitors of protein kinases ABL and SRC” (Oribase Pharma, priority 2009, dated 2013)
pIC50: −log10 of the molar value. Several values for one entry are separate records, joined by “and”; a condition that tells them apart may be missing. Equal entries are not always repeated. Where two headings read alike, the source gives them in different places.

Legend:
[1] = target: Abl kinase (h) (Homo sapiens (Human), UniProt P00519); assay: Cerep kinase profiling, HTRF assay, Abl kinase; format: biochemical
Protocol: The inhibitory activity of the compounds of the chemical series on different protein kinases was evaluated by Cerep (Cerep Kinase Profiling Service; www.cerep.com). The kinases used in the tests in vitro are human recombinant proteins expressed in human cells, insect cells or in bacteria. […] The activity of the kinase was then detected by an HTRF assay. The HTRF assay (CisBio International) is based on fluorescence transfer, using Europium (Eu3+) cryptate and XL665 respectively as donor and acceptor. When the biotinylated or tagged substrate is phosphorylated by the kinase, it reacts with a cryptate-labelled phosphospecific antibody. Addition of Streptavidin-XL665, SA-XL665, (or anti-tag antibody XL665) leads to juxtaposition of the cryptate and of the fluorophore XL665, which is reflected in fluorescence resonance energy transfer (FRET). The intensity of FRET depends on the quantity of cryptate-labelled antibody bound to the substrate, which is proportional to the quantity of phosphorylated substrate (Mathis, G. Probing molecular interactions with homogeneous techniques based on rare earth cryptates and fluorescence energy transfer.

[2] = target: Src kinase (Homo sapiens (Human), UniProt P12931); assay: Reaction Biology Corp. kinase assay, Src; conditions: compounds tested by Reaction Biology Corp.; for pIC50: IC50 on kinase Src (category), ATP at 10 μM; for inhibition at 10 µM: read-out: % inhibition of kinase activity, Src (category), 10 μM
[3] = target: Abl WT (Homo sapiens (Human), UniProt P00519); assay: Reaction Biology Corp. kinase assay, Abl WT; format: biochemical; conditions: compounds tested by Reaction Biology Corp.; for inhibition at 10 µM: read-out: % inhibition of kinase activity, Abl WT (category); for pIC50: ATP at 10 μM, read-out: IC50 on kinase Abl WT (category)
Protocol: (§1) 4 compounds were tested for their capacity to inhibit various mutated kinases AbI (American company, Reaction Biology Corp.).

[4] = target: Abl T315I (Homo sapiens (Human), UniProt P00519, T315I); assay: Reaction Biology Corp. kinase assay, mutated Abl T315I; format: biochemical; conditions: 10 μM; Reaction Biology Corp.; read-out: % inhibition of kinase activity, Abl T315I (category)
Protocol: as §1

[5] = 10 μM, compounds tested by Cerep, read-out: % inhibition of kinase activity, Abl WT (category)
[6] = Table 6, compound incubated at 10 μM, read-out: Percentage inhibition of kinase Abl
[7] = Table 9, Cerep, 5 concentrations 10^−10 M to 10^−4 M, read-out: IC50 in M Abl
[8] = compounds tested by Cerep, read-out: IC50 on kinase Abl WT (category)

Chain of Src kinase (P12931 whole entry, looked up): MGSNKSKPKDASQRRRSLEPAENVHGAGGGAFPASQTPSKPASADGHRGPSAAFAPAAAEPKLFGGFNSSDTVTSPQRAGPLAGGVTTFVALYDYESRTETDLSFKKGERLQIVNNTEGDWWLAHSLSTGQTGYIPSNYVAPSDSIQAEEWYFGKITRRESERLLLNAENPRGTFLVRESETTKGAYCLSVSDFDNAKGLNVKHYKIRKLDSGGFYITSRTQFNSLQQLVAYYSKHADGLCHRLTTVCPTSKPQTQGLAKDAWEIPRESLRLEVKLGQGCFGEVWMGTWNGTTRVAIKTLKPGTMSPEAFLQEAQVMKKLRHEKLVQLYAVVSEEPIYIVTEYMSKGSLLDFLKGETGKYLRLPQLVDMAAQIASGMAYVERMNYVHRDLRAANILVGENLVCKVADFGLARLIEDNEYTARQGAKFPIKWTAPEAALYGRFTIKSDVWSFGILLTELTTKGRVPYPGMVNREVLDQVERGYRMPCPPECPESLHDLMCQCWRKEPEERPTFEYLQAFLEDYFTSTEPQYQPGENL

inhibition at 10 µM [1, 5] [%] | inhibition at 10 µM [1, 6] [%] | other results | SMILES
10 to 50 | 31 |  | COc1ccc(OC(=O)c2cc3cc(NC(=O)c4ccccc4)cnc3[nH]2)cc1 [ND0004, 5-(benzamido)-1H-pyrrolo[2,3-b]pyridine-2-4-methoxyphenyl carboxylate]
10 to 50 | 10 |  | NC(=O)c1cc2cc(NC(=O)c3cccc(F)c3)cnc2[nH]1 [ND0005, 5-(3-Fluorobenzamido)-1H-pyrrolo[2,3-b]pyridine-2-carboxamide]
10 to 50 | 33 | pIC50 [1, 7]: < 4.00; pIC50 [1, 8]: < 5.00 | O=C(Nc1cnc2[nH]c(C(=O)NCCN3CCOCC3)cc2c1)c1cccc(F)c1 [ND0006, 5-(3-fluorobenzamido)-N-(2-morpholinoethyl)-1H-pyrrolo[2,3-b]pyridine-2-carboxamide]
< 10 | 1 | pIC50 [1, 7]: < 4.00; pIC50 [1, 8]: < 5.00 | O=C(Nc1cnc2[nH]c(C(=O)N3CCOCC3)cc2c1)c1cc([N+](=O)[O-])ccc1F [ND0010, 5-(2-fluoro-5-nitrobenzamido)-2-morpholinocarbonyl-1H-pyrrolo[2,3-b]pyridine]
< 10 | 6 | pIC50 [1, 7]: < 4.00; pIC50 [1, 8]: < 5.00 | Cc1nc(-c2cccc(C(=O)Nc3cnc4[nH]c(C(=O)NCCCN(C)C)cc4c3)c2)cs1 [ND0011, 5-(3-(2-methylthiazol-4-yl)benzamido)-N-(3-(dimethylamino)propyl)-1H-pyrrolo[2,3-b]pyridine-2-carboxamide]
< 10 | 8 |  | CN(C)CCCNC(=O)c1cc2cc(NC(=O)c3ccc4nccnc4c3)cnc2[nH]1 [ND0012, N-(2-(3-(dimethylamino)propylcarbamoyl)-1H-pyrrolo[2,3-b]pyridin-5-yl)quinoxaline-6-carboxamide]
> 50 | 82 |  | O=C(Nc1cnc2[nH]c(CO)cc2c1)c1ccccc1Br [ND0019, 2-bromo-N-(2-(hydroxymethyl)-1H-pyrrolo[2,3-b]pyridin-5-yl)benzamide]
10 to 50 | 39 |  | O=C(Nc1cnc2[nH]c(C[C@H]3CCCO3)cc2c1)c1ccccc1Br [ND0025]
< 10 | 8 |  | CC1CCCCC1NCc1cc2cc(NC(=O)c3ccccc3Br)cnc2[nH]1 (stereo not drawn) [ND0026]
10 to 50 | 29 |  | O=C(Nc1cnc2[nH]c(CNc3cccc(Br)c3)cc2c1)c1ccccc1Br [ND0027]
10 to 50 | 14 |  | O=C(Nc1cnc2[nH]c(CNCc3ccccc3)cc2c1)c1ccccc1Br [ND0028]
> 50 | 86 | pIC50 [1, 7]: 5.40; pIC50 [1, 8]: 5.00 to 7.00 | O=C(Nc1cnc2[nH]c(Cn3ccnc3)cc2c1)c1ccccc1Br [ND0031]
10 to 50 | 27 |  | N#Cc1ccc(NCc2cc3cc(NC(=O)c4ccccc4Br)cnc3[nH]2)cc1 [ND0032]
10 to 50 | 17 |  | O=C(Nc1cnc2[nH]c(CNc3cccc([N+](=O)[O-])c3)cc2c1)c1ccccc1Br [ND0034]
10 to 50 | 47 |  | N#Cc1ccccc1NCc1cc2cc(NC(=O)c3ccccc3Br)cnc2[nH]1 [ND0036]
10 to 50 | 21 |  | Cc1cccc(NCc2cc3cc(NC(=O)c4ccccc4Br)cnc3[nH]2)c1 [ND0040]
10 to 50 | 14 |  | COc1cccc(NCc2cc3cc(NC(=O)c4ccccc4Br)cnc3[nH]2)c1 [ND0041]
< 10 | 6 |  | COC(=O)c1cc2cc(NC(=O)C3CC3)cnc2[nH]1 [ND0044, Methyl 5-(cyclopropanecarboxamido)-1H-pyrrolo [2,3-b]pyridine-2-carboxylate]
> 50 | 58 |  | COC(=O)c1cc2cc(NC(=O)C(C)C)cnc2[nH]1 [ND0045, Methyl 5-(isobutyramido)-1H-pyrrolo[2,3-b]pyridine-2-carboxylate]

inhibition at 10 µM [1, 5] [%] | inhibition at 10 µM [1, 6] [%] | other results | SMILES
10 to 50 | 49 |  | CCC(=O)Nc1cnc2[nH]c(C(=O)OC)cc2c1 [ND0046, Methyl 5-(propionamido)-1H-pyrrolo[2,3-b]pyridine-2-carboxylate]
10 to 50 | 27 |  | COC(=O)c1cc2cc(NC(=O)c3cccnc3)cnc2[nH]1 [ND0050, Methyl 5-(nicotinamido)-1H-pyrrolo[2,3-b]pyridine-2-carboxylate]
10 to 50 | 20 |  | COC(=O)c1cc2cc(NC(=O)c3cccc(C#N)c3)cnc2[nH]1 [ND0051, Methyl 5-(3-cyanobenzamido)-1H-pyrrolo[2,3-b]pyridine-2-carboxylate]
10 to 50 | 33 |  | COC(=O)c1cc2cc(NC(=O)c3cccc(F)c3)cnc2[nH]1 [ND0053, Methyl 5-(3-fluorobenzamido)-1H-pyrrolo[2,3-b]pyridine-2-carboxylate]
10 to 50 | 15 |  | COC(=O)c1cc2cc(NC(=O)c3ccc(-c4csc(C)n4)cc3)cnc2[nH]1 [ND0054, Methyl 5-(4-(2-methylthiazol-4-yl)benzamido)-1H-pyrrolo[2,3-b]pyridine-2-carboxylate]
 |  | pIC50 [2]: 5.00 to 7.00; inhibition at 10 µM [2]: > 50%; inhibition at 10 µM [3]: > 50%; pIC50 [3]: 5.00 to 7.00; inhibition at 10 µM [4]: < 10% | COC(=O)c1cc2cc(NCc3ccccc3Br)cnc2[nH]1 [ND0057]
 |  | inhibition at 10 µM [2]: 10 to 50%; inhibition at 10 µM [3]: 10 to 50%; inhibition at 10 µM [4]: < 10% | COC(=O)c1cc2cc(Nc3ccncc3)cnc2[nH]1 [ND0058]
< 10 | 5 |  | COC(=O)c1cc2cc(NC(=O)c3ccccc3Oc3ccccc3)cnc2[nH]1 [ND0059, Methyl 5-(2-phenoxybenzamido)-1H-pyrrolo[2,3-b]pyridine-2-carboxylate]
10 to 50 | 16 |  | CCCSc1ncccc1C(=O)Nc1cnc2[nH]c(C(=O)OC)cc2c1 [ND0060, Methyl 5-(2-(propylthio)pyridine-3-carboxamido)-1H-pyrrolo[2,3-b]pyridine-2-carboxylate]
10 to 50 | 46 |  | COC(=O)c1cc2cc(NC(=O)c3cccc(F)c3F)cnc2[nH]1 [ND0061, Methyl 5-(2,3-difluorobenzamido)-1H-pyrrolo[2,3-b]pyridine-2-carboxylate]
< 10 | 6 |  | COC(=O)c1cc2cc(NC(=O)c3cccc4c3OCC4)cnc2[nH]1 [ND0062, Methyl 5-(2,3-dihydrobenzofuran-7-carboxamido)-1H-pyrrolo[2,3-b]pyridine-2-carboxylate]
 |  | inhibition at 10 µM [2]: 10 to 50%; inhibition at 10 µM [3]: 10 to 50%; inhibition at 10 µM [4]: < 10% | COC(=O)c1cc2cc(NC(=O)c3ccccc3OC)cnc2[nH]1 [ND0073, Methyl 5-(2-methoxybenzamido)-1H-pyrrolo[2,3-b]pyridine-2-carboxylate]
 |  | inhibition at 10 µM [2]: 10 to 50%; inhibition at 10 µM [3]: 10 to 50%; inhibition at 10 µM [4]: 10 to 50% | COC(=O)c1cc2cc(NC(=O)c3cccc(Br)c3)cnc2[nH]1 [ND0075, Methyl 5-(3-bromobenzamido)-1H-pyrrolo[2,3-b]pyridine-2-carboxylate]
 |  | pIC50 [2]: 7.00 to 9.00 and 5.00 to 7.00; inhibition at 10 µM [2]: > 50%; inhibition at 10 µM [3]: > 50%; pIC50 [3]: 7.00 to 9.00; inhibition at 10 µM [4]: < 10% | COC(=O)c1cc2cc(NC(=O)c3ccccc3C(F)(F)F)cnc2[nH]1 [ND0077, Methyl 5-(2-(trifluoromethyl)benzamido)-1H-pyrrolo[2,3-b]pyridine-2-carboxylate]
 |  | inhibition at 10 µM [2]: 10 to 50%; inhibition at 10 µM [3]: 10 to 50%; inhibition at 10 µM [4]: < 10% | COC(=O)c1cc2cc(NC(=O)c3ccccc3OC(F)(F)F)cnc2[nH]1 [ND0078, Methyl 5-(2-(trifluoromethoxy)benzamido)-1H-pyrrolo[2,3-b]pyridine-2-carboxylate]
 |  | inhibition at 10 µM [2]: 10 to 50% | COC(=O)c1cc2cc(Nc3cccc(OC)c3)cnc2[nH]1 [ND0102]
 |  | inhibition at 10 µM [2]: < 10% | COC(=O)c1cc2cc(Nc3cccc(Br)c3)cnc2[nH]1 [ND0104]
 |  | inhibition at 10 µM [2]: 10 to 50% | COC(=O)c1cc2cc(Nc3ccc(Br)cc3)cnc2[nH]1 [ND0107]
 |  | inhibition at 10 µM [2]: 10 to 50% | COC(=O)c1cc2cc(Nc3ccc(OC)cc3)cnc2[nH]1 [ND0109]
